{"source": "patent US10144706B2", "about": "(BRISTOL-MYERS SQUIBB COMPANY, priority 2016, dated 2018)", "biological_target": "T1, PD-1/PD-L1 interaction (PD-1-Ig / PD-L1-His) (Homo sapiens, UniProt Q9NZQ7)", "T1 construct": "hPDL1(18-239)-TVMV-His; TVMV protease site linker (C); made in house; host or cells: HEK293T", "T1 sequence (Q9NZQ7 with tags, fused parts or gaps)": "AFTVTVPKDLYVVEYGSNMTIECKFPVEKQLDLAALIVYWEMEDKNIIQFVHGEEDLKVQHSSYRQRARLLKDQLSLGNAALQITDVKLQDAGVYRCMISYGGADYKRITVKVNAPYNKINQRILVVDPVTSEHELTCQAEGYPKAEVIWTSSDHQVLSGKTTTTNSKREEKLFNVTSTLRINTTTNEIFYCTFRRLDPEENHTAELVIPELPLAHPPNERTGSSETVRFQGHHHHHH", "assay": "PD-1/PD-L1 Homogenous Time-Resolved Fluorescence (HTRF) binding assay", "settings": "PD-L1-His 10 nM, PD-1-Ig 20 nM, read-out: Range or IC50", "method_in_brief": "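HTRF detection used 1 nM europium-cryptate anti-Ig and 20 nM APC anti-His. Compounds first saw 10 nM PD-L1-His for 15 min, and 20 nM PD-1-Ig was then added for another 15 min. Buffer was dPBS plus 0.1% BSA and 0.05% Tween-20. All concentrations are final.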", "note": "Like-named read-outs stand apart in the source and are kept apart here."}
{"molecule": "Cc1c(OCCCN[C@H](CO)C(C)C)cccc1-c1cccc(OCCCN2CC[C@@H](O)C2)c1C", "note": "[Example 2058, (R)-1-(3-((3′-(3-(((S)-1-hydroxy-3-methylbutan-2-yl)amino)propoxy)-2,2′-dimethyl-[1,1′-biphenyl]-3-yl)oxy)propyl)pyrrolidin-3-ol]", "values": [{"measurement": "IC50", "setting": "IC50 range class", "result": "90.1 to 1000", "unit": "nM"}]}
{"molecule": "Cc1c(OCCCN[C@@H](CO)Cc2ncn(C)c2Cl)cccc1-c1cccc(OCCCN2CC[C@@H](O)C2)c1C", "note": "[Example 2071, (R)-1-(3-((3′-(3-(((R)-1-(5-chloro-1-methyl-1H-imidazol-4-yl)-3-hydroxypropan-2-yl)amino)propoxy)-2,2′-dimethyl-[1,1′-biphenyl]-3-yl)oxy)propyl)pyrrolidin-3-ol]", "values": [{"measurement": "IC50", "setting": "IC50 range class", "result": "90.1 to 1000", "unit": "nM"}]}
{"molecule": "N#Cc1cncc(COc2cc(OCc3cccc(-c4cccc(COc5cc(OCc6cncc(C#N)c6)c(CN6CCCCC6)cc5Cl)c4)c3)c(Cl)cc2CN2CCCCC2)c1", "note": "[Example 40060]", "values": [{"measurement": "IC50", "setting": "IC50 range class", "result": "20.1 to 90", "unit": "nM"}]}
{"molecule": "Cc1c(OCCCNCC(C)(C)CO)cccc1-c1cccc(OCCCN2CC[C@@H](O)C2)c1C", "note": "[Example 2046, (R)-1-(3-((3′-(3-((3-hydroxy-2,2-dimethylpropyl)amino)propoxy)-2,2′-dimethyl-[1,1′-biphenyl]-3-yl)oxy)propyl)pyrrolidin-3-ol]", "values": [{"measurement": "IC50", "setting": "IC50 range class", "result": "20.1 to 90", "unit": "nM"}]}
{"molecule": "Cc1c(COc2cc(OCc3cncc(C#N)c3)c(CN[C@H](CC(=O)O)Cc3ccc(I)cc3)cc2Cl)cccc1-c1cccc(COc2cc(OCc3cncc(C#N)c3)c(CN[C@H](CC(=O)O)Cc3ccc(I)cc3)cc2Cl)c1C", "note": "[Example 40530]", "values": [{"measurement": "IC50", "setting": "IC50 range class", "result": "90.1 to 1000", "unit": "nM"}]}
{"molecule": "Cc1c(COc2cc(OCc3cncc(C#N)c3)c(CNC3CCC[C@@H]3C(=O)O)cc2Cl)cccc1-c1cccc(COc2cc(OCc3cncc(C#N)c3)c(CN[C@@H]3CCC[C@@H]3C(=O)O)cc2Cl)c1C", "note": "(stereo partly drawn) [Example 40510]", "values": [{"measurement": "IC50", "setting": "IC50 range class", "result": "0.04 to 20", "unit": "nM"}]}
{"molecule": "CCN(CC)CCCNCc1cc(Cl)c(OCc2cccc(-c3cccc(COc4cc(OCc5cncc(C#N)c5)c(CNCCCN(CC)CC)cc4Cl)c3)c2)cc1OCc1cncc(C#N)c1", "note": "[Example 40070]", "values": [{"measurement": "IC50", "setting": "IC50 range class", "result": "0.04 to 20", "unit": "nM"}]}
{"molecule": "Cc1c(OCCCN2CC[C@@H](O)C2)cccc1-c1cccc(S(=O)(=O)NCCCN(C)C)c1C", "note": "[Example 3010, (R)—N-(3-(dimethylamino)propyl)-3′-(3-(3-hydroxypyrrolidin-1-yl)propoxy)-2,2′-dimethyl-[1,1′-biphenyl]-3-sulfonamide]", "values": [{"measurement": "IC50", "setting": "numeric IC50", "result": 10000, "unit": "nM"}]}
{"molecule": "Cc1c(COc2cc(OCc3cncc(C#N)c3)c(C(=O)N3CCOCC3)cc2Cl)cccc1-c1cccc(COc2cc(OCc3cncc(C#N)c3)c(C(=O)N3CCOCC3)cc2Cl)c1C", "note": "[Example 80100]", "values": [{"measurement": "IC50", "setting": "IC50 range class", "result": "0.04 to 20", "unit": "nM"}]}
{"molecule": "Cc1c(COc2cc(OCc3cncc(C#N)c3)c(CN3CC(C(=O)O)C(c4ccccc4Cl)C3)cc2Cl)cccc1-c1cccc(COc2cc(OCc3cncc(C#N)c3)c(CN3CC(C(=O)O)C(c4ccccc4Cl)C3)cc2Cl)c1C", "note": "(stereo not drawn) [Example 40520]", "values": [{"measurement": "IC50", "setting": "IC50 range class", "result": "90.1 to 1000", "unit": "nM"}]}
{"molecule": "Cc1ccn(CCNCCCOc2cccc(-c3cccc(OCCCN4CC[C@@H](O)C4)c3C)c2C)n1", "note": "[Example 2009, (R)-1-(3-((2,2′-dimethyl-3′-(3-((2-(3-methyl-1H-pyrazol-1-yl)ethyl)amino)propoxy)-[1,1′-biphenyl]-3-yl)oxy)propyl)pyrrolidin-3-ol]", "values": [{"measurement": "IC50", "setting": "IC50 range class", "result": "20.1 to 90", "unit": "nM"}]}
{"molecule": "CCN(CC)C(=O)C1CCCN(CCCOc2cccc(-c3cccc(OCCCN4CC[C@@H](O)C4)c3C)c2C)C1", "note": "(mixture of isomers) [Example 2023, N,N-diethyl-1-(3-((3′-(3-((R)-3-hydroxypyrrolidin-1-yl)propoxy)-2,2′-dimethyl-[1,1′-biphenyl]-3-yl)oxy)propyl)piperidine-3-carboxamide]", "values": [{"measurement": "IC50", "setting": "IC50 range class", "result": "20.1 to 90", "unit": "nM"}]}
{"molecule": "Cc1c(COc2cc(OCc3cc(F)cc(F)c3)c(CN(C)C(CO)CO)cc2Cl)cccc1-c1cccc(COc2cc(OCc3cc(F)cc(F)c3)c(CN(C)C(CO)CO)cc2Cl)c1C", "note": "[Example 5005, 2,2′-((((((2,2′-dimethyl-[1,1′-biphenyl]-3,3′-diyl)bis(methylene))bis(oxy))bis(5-chloro-2-((3,5-difluorobenzyl)oxy)-4,1-phenylene))bis(methylene))bis(methylazanediyl))bis(propane-1,3-diol)]", "values": [{"measurement": "IC50", "setting": "IC50 range class", "result": "90.1 to 1000", "unit": "nM"}]}
{"molecule": "Cc1c(OCCCN2CC[C@@H](O)C2)cccc1-c1cccc(OCc2cccc(C#N)c2)c1C", "note": "[Example 3019, (R)-3-(((3′-(3-(3-hydroxypyrrolidin-1-yl)propoxy)-2,2′-dimethyl-[1,1′-biphenyl]-3-yl)oxy)methyl)benzonitrile]", "values": [{"measurement": "IC50", "setting": "numeric IC50", "result": 106, "unit": "nM"}]}
{"molecule": "Cc1c(OCCCN[C@H](CO)c2ccccc2)cccc1-c1cccc(OCCCN2CC[C@@H](O)C2)c1C", "note": "[Example 2057, (R)-1-(3-((3′-(3-(((S)-2-hydroxy-1-phenylethyl)amino)propoxy)-2,2′-dimethyl-[1,1′-biphenyl]-3-yl)oxy)propyl)pyrrolidin-3-ol]", "values": [{"measurement": "IC50", "setting": "IC50 range class", "result": "90.1 to 1000", "unit": "nM"}]}
{"molecule": "COC(=O)[C@H](NCc1cc(Cl)c(OCc2cccc(-c3cccc(COc4cc(OCc5cncc(C#N)c5)c(CN[C@H](C(=O)O)C(=O)OC)cc4Cl)c3C)c2C)cc1OCc1cncc(C#N)c1)C(=O)O", "note": "[Example 40910]", "values": [{"measurement": "IC50", "setting": "IC50 range class", "result": "1000 to 10000", "unit": "nM"}]}
{"molecule": "Cc1c(COc2cc(OCc3cncc(C#N)c3)c(CNC(CO)(Cc3ccccc3)C(=O)O)cc2Cl)cccc1-c1cccc(COc2cc(OCc3cncc(C#N)c3)c(CNC(CO)(Cc3ccccc3)C(=O)O)cc2Cl)c1C", "note": "(stereo not drawn) [Example 40200]", "values": [{"measurement": "IC50", "setting": "IC50 range class", "result": "0.04 to 20", "unit": "nM"}]}
{"molecule": "Cc1c(OCCCCCN2CC[C@@H](O)C2)cccc1-c1cccc(OCCCN2CC[C@@H](O)C2)c1C", "note": "[Example 3003, (R)-1-(3-((3′-((5-((R)-3-hydroxypyrrolidin-1-yl)pentyl)oxy)-2,2′-dimethyl-[1,1′-biphenyl]-3-yl)oxy)propyl)pyrrolidin-3-ol]", "values": [{"measurement": "IC50", "setting": "IC50 range class", "result": "0.04 to 20", "unit": "nM"}]}
{"molecule": "Cc1c(COc2cc(OCc3cncc(C#N)c3)c(CN3CCCC[C@H]3C(=O)O)cc2Cl)cccc1-c1cccc(COc2cc(OCc3cncc(C#N)c3)c(CN3CCCC[C@H]3C(=O)O)cc2Cl)c1C", "note": "[Example 2119, (2S,2′S)-1,1′-(((((2,2′-dimethyl-[1,1′-biphenyl]-3,3′-diyl)bis(methylene))bis(oxy))bis(5-chloro-2-((5-cyanopyridin-3-yl)methoxy)-4,1-phenylene))bis(methylene))bis(piperidine-2-carboxylic acid)]", "values": [{"measurement": "IC50", "setting": "IC50 range class", "result": "0.04 to 20", "unit": "nM"}]}
{"molecule": "COc1cc(OCc2cccc(-c3cccc(COc4cc(OC)c(CNCCC(=O)O)cc4Cl)c3C)c2C)c(Cl)cc1CNCCC(=O)O", "note": "[Example 5035, 3,3′-((((((2,2′-dimethyl-[1,1′-biphenyl]-3,3′-diyl)bis(methylene))bis(oxy))bis(5-chloro-2-methoxy-4,1-phenylene))bis(methylene))bis(azanediyl))dipropionic acid]", "values": [{"measurement": "IC50", "setting": "IC50 range class", "result": "0.04 to 20", "unit": "nM"}]}
{"molecule": "Cc1c(COc2cc(OCc3cncc(C#N)c3)c(CN3CCCC(C(=O)O)C3)cc2Cl)cccc1-c1cccc(COc2cc(OCc3cncc(C#N)c3)c(CN3CCCC(C(=O)O)C3)cc2Cl)c1C", "note": "(stereo not drawn) [Example 40380]", "values": [{"measurement": "IC50", "setting": "IC50 range class", "result": "0.04 to 20", "unit": "nM"}]}
{"molecule": "Cc1c(COc2cc(OCc3cncc(C#N)c3)c(CN3CC[C@@H](O)C3)cc2Cl)cccc1-c1cccc(COc2cc(OCc3cncc(C#N)c3)c(CN3CC[C@@H](O)C3)cc2Cl)c1C", "note": "[Example 2125, 5,5′-((((((2,2′-dimethyl-[1,1′-biphenyl]-3,3′-diyl)bis(methylene))bis(oxy))bis(4-chloro-6-(((R)-3-hydroxypyrrolidin-1-yl)methyl)-3,1-phenylene))bis(oxy))bis(methylene))dinicotinonitrile]", "values": [{"measurement": "IC50", "setting": "IC50 range class", "result": "0.04 to 20", "unit": "nM"}]}
{"molecule": "Cc1c(COc2cc(OCc3cncc(C#N)c3)c(CO)cc2Cl)cccc1-c1cccc(COc2cc(OCc3cncc(C#N)c3)c(CN3CCCC[C@H]3C(=O)O)cc2Cl)c1C", "note": "[Example 2120, (S)-1-(5-chloro-4-((3′-((2-chloro-5-((5-cyanopyridin-3-yl)methoxy)-4-(hydroxymethyl)phenoxy)methyl)-2,2′-dimethyl-[1,1′-biphenyl]-3-yl)methoxy)-2-((5-cyanopyridin-3-yl)methoxy)benzyl)piperidine-2-carboxylic acid]", "values": [{"measurement": "IC50", "setting": "IC50 range class", "result": "0.04 to 20", "unit": "nM"}]}
{"molecule": "Cc1c(COc2cc(OCc3cncc(C#N)c3)c(CO)cc2Cl)cccc1-c1cccc(COc2cc(OCc3cncc(C#N)c3)c(CN[C@@H](C(=O)O)[C@@H](C)O)cc2Cl)c1C", "note": "[Example 50190]", "values": [{"measurement": "IC50", "setting": "IC50 range class", "result": "0.04 to 20", "unit": "nM"}]}
{"molecule": "Cc1c(OCCCN(C)C)cccc1-c1cccc(OCCCN2CC[C@@H](O)C2)c1C", "note": "[Example 3007, (R)-1-(3-((3′-(3-(dimethylamino)propoxy)-2,2′-dimethyl-[1,1′-biphenyl]-3-yl)oxy)propyl)pyrrolidin-3-ol]", "values": [{"measurement": "IC50", "setting": "IC50 range class", "result": "0.04 to 20", "unit": "nM"}]}
{"molecule": "Cc1c(COc2cc(OCc3cncc(C#N)c3)c(CN[C@@H](Cc3c[nH]c4ccccc34)C(=O)O)cc2Cl)cccc1-c1cccc(COc2cc(OCc3cncc(C#N)c3)c(CN[C@@H](Cc3c[nH]c4ccccc34)C(=O)O)cc2Cl)c1C", "note": "[Example 40700]", "values": [{"measurement": "IC50", "setting": "IC50 range class", "result": "0.04 to 20", "unit": "nM"}]}
{"molecule": "Cc1c(OCCCN2CCCC(CO)C2)cccc1-c1cccc(OCCCN2CC[C@@H](O)C2)c1C", "note": "(mixture of isomers) [Example 2003, (3R)-1-(3-((3′-(3-(3-(hydroxymethyl)piperidin-1-yl)propoxy)-2,2′-dimethyl-[1,1′-biphenyl]-3-yl)oxy)propyl)pyrrolidin-3-ol]", "values": [{"measurement": "IC50", "setting": "IC50 range class", "result": "20.1 to 90", "unit": "nM"}]}
{"molecule": "Cc1c(COc2cc(OCc3cncc(C#N)c3)c(CO)cc2Cl)cccc1-c1cccc(COc2cc(OCc3cncc(C#N)c3)c(CNC(C(=O)O)C(=O)O)cc2Cl)c1C", "note": "[Example 50270]", "values": [{"measurement": "IC50", "setting": "numeric IC50", "result": 23, "unit": "nM"}]}
{"molecule": "Cc1c(COc2cc(OCc3cncc(C#N)c3)c(Cl)cc2Cl)cccc1-c1cccc(COc2cc(OCc3cncc(C#N)c3)c(CNC(C)(CO)C(=O)O)cc2Cl)c1C", "note": "(stereo not drawn) [Example 70030]", "values": [{"measurement": "IC50", "setting": "IC50 range class", "result": "20.1 to 90", "unit": "nM"}]}
{"molecule": "O=C(O)C[C@@H](O)C(=O)NCCCOc1cccc(-c2cccc(OCCCNC(=O)[C@H](O)CC(=O)O)c2Cl)c1Cl", "note": "[Example 2136, (3R,3′R)-4,4′-((((2,2′-dichloro-[1,1′-biphenyl]-3,3′-diyl)bis(oxy))bis(propane-3,1-diyl))bis(azanediyl))bis(3-hydroxy-4-oxobutanoic acid)]", "values": [{"measurement": "IC50", "setting": "numeric IC50", "result": 3450, "unit": "nM"}]}
